Data on 9 molecules can be found in DBAASP.

Converted amounts (≈) assume the structure as drawn. Where only a bound is given, the exact number is not on record here.

Test systems include Bacillus subtilis 168; Escherichia coli B; Pseudomonas aeruginosa; Staphylococcus aureus; Bacillus subtilis; Escherichia coli; Escherichia coli JM109.
Holding throughout (assay): ≥ marks a high value that may be exact or a test limit, other limits are often not marked, values filed in µg/mL are converted to µM
The test system of assay [1] is Candida albicans NCYC 1467.
Assay [2] deals with Escherichia coli NCTC 10418.
Assay [3] deals with Pseudomonas aeruginosa ATCC 27853.
Assay [4] deals with Staphylococcus aureus NCTC 10788.
In assay [5] the test system is Staphylococcus aureus NCTC 12493.
Assay [6] has as its system Candida albicans F7-39/IDE99.
For assay [7], the system named is Candida albicans ATCC 2002.
Assay [8] deals with Escherichia coli ATCC 25922.
Assay [9] relates to Pseudomonas aeruginosa CMCCB 10104.
Assay [10] concerns Staphylococcus aureus ATCC 25923.
For assay [11], the system named is Staphylococcus aureus ATCC 6538P.

Usually MIC stands for the smallest concentration in the dilution series that meets the test's criterion for growth inhibition. Regarding `CC[C@H](C)[C@H](NC(=O)CNC(=O)[C@@H](NC(=O)[C@H](C)NC(=O)[C@@H](NC(=O)[C@H](CCCCN)NC(=O)[C@@H]1CCCN1C(=O)[C@@H](NC(=O)[C@H](CC(C)C)NC(=O)[C@H](CO)NC(=O)[C@H](CC(C)C)NC(=O)[C@@H](N)Cc1ccccc1)[C@@H](C)CC)[C@@H](C)CC)[C@@H](C)O)C(=O)N[C@@H](C)C(=O)N[C@@H](C)C(=O)N[C@@H](CC(C)C)C(=O)N[C@@H](C)C(=O)N[C@@H](CCCCN)C(=O)N[C@@H](Cc1cnc[nH]1)C(=O)N[C@@H](CC(C)C)C(N)=O` [FLSLIPKIATGIAALAKHL], the minimum inhibitory concentration (MIC) worked out at 2 µM (≈ 3.95 µg/mL) in assay [1]; 8 µM (≈ 15.8 µg/mL) in assay [2]; 32 µM (≈ 63.2 µg/mL) in [3]; 2 µM (≈ 3.95 µg/mL) in [4]; 2 µM (≈ 3.95 µg/mL) in assay [5].

For the molecule `CC[C@H](C)[C@H](NC(=O)[C@H](Cc1cnc[nH]1)NC(=O)[C@H](CCCCN)NC(=O)[C@H](CC(C)C)NC(=O)[C@H](CC(C)C)NC(=O)[C@H](CO)NC(=O)[C@H](CC(C)C)NC(=O)[C@H](Cc1c[nH]c2ccccc12)NC(=O)[C@H](CCCCN)NC(=O)CN)C(=O)N[C@@H](CC(C)C)C(=O)N[C@@H](CCCCN)C(N)=O` [GKWLSLLKHILK], the MIC with Bacillus subtilis 168 came to 0.9 µM (≈ 1.29 µg/mL); in assay [6], 8.7 µM (≈ 12.5 µg/mL); in the assay on Escherichia coli B it was 1.8 µM (≈ 2.58 µg/mL); against Pseudomonas aeruginosa it was 31.7 µM (≈ 45.5 µg/mL); against Staphylococcus aureus, 5.5 µM (≈ 7.89 µg/mL).

As for `CC[C@H](C)[C@H](NC(=O)[C@H](Cc1cnc[nH]1)NC(=O)[C@H](CCCCN)NC(=O)[C@H](CC(C)C)NC(=O)[C@H](CC(C)C)NC(=O)[C@H](CO)NC(=O)[C@H](Cc1c[nH]c2ccccc12)NC(=O)[C@H](Cc1c[nH]c2ccccc12)NC(=O)[C@H](CCCCN)NC(=O)CN)C(=O)N[C@@H](CC(C)C)C(=O)N[C@@H](CCCCN)C(N)=O` [GKWWSLLKHILK], the MIC against Bacillus subtilis came out at 0.6 µM (≈ 0.905 µg/mL); in [6], 5.3 µM (≈ 7.99 µg/mL); with Escherichia coli, 1.6 µM (≈ 2.41 µg/mL); in the assay on Pseudomonas aeruginosa it was 50 µM (≈ 75.4 µg/mL); in the assay on Staphylococcus aureus, 4.7 µM (≈ 7.09 µg/mL).

Take `CC[C@H](C)[C@H](NC(=O)[C@H](CC(C)C)NC(=O)[C@H](CCCCN)NC(=O)[C@H](C)NC(=O)[C@H](C)NC(=O)CNC(=O)[C@H](CCCCN)NC(=O)[C@@H](NC(=O)[C@H](CC(C)C)NC(=O)[C@@H](NC(=O)[C@H](Cc1ccccc1)NC(=O)[C@H](CC(C)C)NC(=O)CN)[C@@H](C)O)[C@@H](C)CC)C(=O)NCC(=O)N[C@@H](CCCCN)C(=O)N[C@H](C(=O)N[C@H](C(=O)N[C@@H](C)C(=O)N[C@@H](CCCCN)C(=O)N[C@@H](CCC(=O)O)C(=O)N[C@@H](C)C(=O)NCC(=O)N[C@@H](CCCCN)C(=O)N[C@H](C(=O)NCC(=O)N[C@@H](CCCCN)C(=O)N[C@@H](CC(C)C)C(=O)N[C@@H](CCC(=O)O)C(=O)N[C@@H](CCSC)C(=O)N[C@@H](C)C(=O)N[C@H]1CSSC[C@@H](C(=O)O)NC(=O)[C@H](CCC(N)=O)NC(=O)[C@H](CC(N)=O)NC(=O)[C@H]([C@@H](C)O)NC(=O)[C@H]([C@@H](C)CC)NC(=O)[C@H](CCCCN)NC1=O)[C@@H](C)O)[C@@H](C)O)[C@@H](C)O` [GLFTLIKGAAKLIGKTTAKEAGKTGKLEMACKITNQC]: the MIC stood at 1.15 µM (≈ 4.4 µg/mL) in [7], 1.15 µM (≈ 4.4 µg/mL) in [8], 0.573 µM (≈ 2.2 µg/mL) in assay [9] and 0.573 µM (≈ 2.2 µg/mL) in [10].

For the molecule `CC[C@H](C)[C@H](NC(=O)[C@H](CC(C)C)NC(=O)[C@H](CCC(N)=O)NC(=O)[C@@H](NC(=O)[C@H](C)NC(=O)CNC(=O)[C@H](CCCCN)NC(=O)[C@H](CC(C)C)NC(=O)[C@H](CC(C)C)NC(=O)[C@@H](NC(=O)[C@H](Cc1ccccc1)NC(=O)[C@@H](NC(=O)CN)C(C)C)[C@@H](C)O)[C@@H](C)O)C(=O)NCC(=O)N[C@@H](CCCCN)C(=O)N[C@H](C(=O)N[C@@H](CC(C)C)C(=O)NCC(=O)N[C@@H](CCCCN)C(=O)N[C@@H](CCC(=O)O)C(=O)N[C@@H](CC(C)C)C(=O)NCC(=O)N[C@@H](CCCCN)C(=O)N[C@H](C(=O)NCC(=O)N[C@@H](CC(C)C)C(=O)N[C@@H](CCC(=O)O)C(=O)N[C@@H](CC(C)C)C(=O)N[C@@H](CCSC)C(=O)N[C@@H](C)C(=O)N[C@H]1CSSC[C@@H](C(=O)O)NC(=O)[C@H](CCC(N)=O)NC(=O)[C@H](CC(N)=O)NC(=O)[C@H]([C@@H](C)O)NC(=O)[C@H]([C@@H](C)CC)NC(=O)[C@H](CCCCN)NC1=O)[C@@H](C)O)[C@@H](C)O` [GVFTLLKGATQLIGKTLGKELGKTGLELMACKITNQC], the MIC in [7] came to 4.07 µM (≈ 15.8 µg/mL); in assay [8], 2.04 µM (≈ 7.9 µg/mL); in [9], 2.04 µM (≈ 7.9 µg/mL); in assay [10], 2.04 µM (≈ 7.9 µg/mL).

Take `CC[C@H](C)[C@H](NC(=O)[C@H](C)NC(=O)[C@H](CC(C)C)NC(=O)[C@H](CS)NC(=O)[C@@H](N)Cc1cnc[nH]1)C(=O)NCC(=O)N[C@@H](CCCN=C(N)N)C(=O)N[C@@H](CCCN=C(N)N)C(N)=O` [HCLAIGRR]: the MIC was 25.9 µM against Escherichia coli JM109, 9.73 µM in assay [11] and more than 69.2 µM against Staphylococcus aureus.

On to `CC[C@H](C)[C@H](N)C(=O)N[C@@H](CC(C)C)C(=O)N1CCC[C@H]1C(=O)N[C@@H](Cc1ccccc1)C(=O)N[C@H](C(=O)N[C@@H](C)C(=O)NCC(=O)N[C@H](C(=O)N[C@@H](C)C(=O)N[C@@H](C)C(=O)N[C@@H](CCC(=O)O)C(=O)N[C@@H](CCSC)C(=O)N[C@@H](CCSC)C(=O)N[C@@H](CCC(=O)O)C(=O)N[C@@H](Cc1cnc[nH]1)C(=O)N[C@H](C(=O)N[C@@H](Cc1ccc(O)cc1)C(=O)N[C@H]1CSSC[C@@H](C(=O)O)NC(=O)[C@H](CCCCN)NC(=O)[C@H](CCCCN)NC(=O)[C@H](CO)NC(=O)[C@H](C)NC(=O)[C@H](C)NC1=O)C(C)C)C(C)C)C(C)C` [ILPFVAGVAAEMMEHVYCAASKKC], for which the MIC in assay [7] was 5.1 µM (≈ 13.1 µg/mL); in assay [8] it was 5.1 µM (≈ 13.1 µg/mL); in assay [9], 20.4 µM (≈ 52.4 µg/mL); in [10], 10.2 µM (≈ 26.2 µg/mL).

Regarding `CC[C@H](C)[C@H](N)C(=O)N[C@@H](CC(C)C)C(=O)N1CCC[C@H]1C(=O)N[C@@H](Cc1ccccc1)C(=O)N[C@H](C(=O)N[C@@H](C)C(=O)NCC(=O)N[C@H](C(=O)N[C@@H](C)C(=O)N[C@@H](C)C(=O)N[C@@H](CCSC)C(=O)N[C@@H](CCC(=O)O)C(=O)N[C@@H](CCSC)C(=O)N[C@@H](CCC(=O)O)C(=O)N[C@@H](Cc1cnc[nH]1)C(=O)N[C@H](C(=O)N[C@@H](Cc1ccc(O)cc1)C(=O)N[C@H]1CSSC[C@@H](C(=O)O)NC(=O)[C@H](CCCCN)NC(=O)[C@H](CCCCN)NC(=O)[C@H](CO)NC(=O)[C@H](C)NC(=O)[C@H](C)NC1=O)C(C)C)C(C)C)C(C)C` [ILPFVAGVAAMEMEHVYCAASKKC], the MIC in [7] turned out to be 3.81 µM (≈ 9.79 µg/mL); in assay [8], 3.81 µM (≈ 9.79 µg/mL); in [9] it was 3.81 µM (≈ 9.79 µg/mL); in assay [10], 1.91 µM (≈ 4.9 µg/mL).

Molecule `CC[C@H](C)[C@H](N)C(=O)N[C@@H](CC(C)C)C(=O)N1CCC[C@H]1C(=O)N[C@@H](Cc1c[nH]c2ccccc12)C(=O)N[C@@H](CCCCN)C(=O)N[C@@H](Cc1c[nH]c2ccccc12)C(=O)N1CCC[C@H]1C(=O)N[C@@H](Cc1ccccc1)C(=O)N[C@@H](Cc1ccccc1)C(=O)N1CCC[C@H]1C(=O)N[C@@H](Cc1c[nH]c2ccccc12)C(=O)N[C@@H](CCCN=C(N)N)C(=O)N[C@@H](CCCN=C(N)N)C(N)=O` [ILPWKWPFFPWRR] registered an MIC against Escherichia coli JM109 of 2 µM (≈ 3.66 µg/mL).
